Test results published in PubChem BioAssay (NCI).
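Where inhibition never reached the appropriate level, the endpoint shown equals the highest concentration tested. Otherwise, values were interpolated linearly from a five-concentration, 48-hour dose response in 96-well plates. At the TGI there is no net growth.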

Columns and labels:
Experiment in all cases: growth of human tumour cells (NCI), 48 h
OVCAR-8 ovarian = system: OVCAR-8 ovarian
PC-3 prostate = system: PC-3 prostate
SN12C renal = system: SN12C renal
OVCAR-3 ovarian = system: OVCAR-3 ovarian
MCF7 breast = system: MCF7 breast
MALME-3M melanoma = system: MALME-3M melanoma
SF-295 CNS = system: SF-295 CNS
IGROV1 ovarian = system: IGROV1 ovarian
SR leukemia = system: SR leukemia
NCI-H23 lung = system: NCI-H23 lung
HT29 colon = system: HT29 colon
HCC-2998 colon = system: HCC-2998 colon
NCI-H522 lung = system: NCI-H522 lung
HS 578T breast = system: HS 578T breast
COLO 205 colon = system: COLO 205 colon
CAKI-1 renal = system: CAKI-1 renal
SK-MEL-5 melanoma = system: SK-MEL-5 melanoma
RXF 393 renal = system: RXF 393 renal

Compound `COc1c(O)c2c(=O)cc(OC)c3c4c(OC)cc(=O)c5c(O)c(OC)c6c(c(c1C(C(C)=O)C6C(C)O)c23)c54` (stereo not drawn) has a TGI (OVCAR-8 ovarian) of 0.71 µM, a TGI (PC-3 prostate) of 0.971 µM and a TGI (SN12C renal) of 2.94 µM. The TGI (OVCAR-3 ovarian) was 0.442 µM, the TGI (MCF7 breast) was 1.54 µM and the TGI (MALME-3M melanoma) was 2.57 µM. The TGI (SF-295 CNS) was 2.05 µM, the TGI (IGROV1 ovarian) was 1 µM and the TGI (SR leukemia) was 1.93 µM. The TGI (NCI-H23 lung) was 1.33 µM, the TGI (HT29 colon) was 0.267 µM and the TGI (HCC-2998 colon) was 1.06 µM. The TGI (NCI-H522 lung) was 0.634 µM and the TGI (HS 578T breast) was 1.81 µM.
`Cc1cn(C2CC(N)C(C(=O)O)O2)c(=O)[nH]c1=O` (stereo not drawn) gave a TGI (OVCAR-8 ovarian) of over 100 µM, a TGI (PC-3 prostate) of over 100 µM and a TGI (SN12C renal) of over 100 µM. For the same compound, the TGI (OVCAR-3 ovarian) was over 100 µM, the TGI (MCF7 breast) was over 100 µM and the TGI (MALME-3M melanoma) was over 100 µM. The TGI (COLO 205 colon) was over 100 µM, the TGI (CAKI-1 renal) was over 100 µM and the TGI (IGROV1 ovarian) was over 100 µM. For the same compound, the TGI (SR leukemia) was over 100 µM, the TGI (NCI-H23 lung) was over 100 µM and the TGI (HT29 colon) was over 100 µM. The TGI (HCC-2998 colon) was over 100 µM, the TGI (NCI-H522 lung) was over 100 µM and the TGI (SK-MEL-5 melanoma) was over 100 µM. The TGI (HS 578T breast) was over 100 µM.
`NC(N)=NCCCC(NC(=O)OCCCCCCn1ccc(N)nc1=O)C(=O)O` (stereo not drawn) showed a TGI (PC-3 prostate) of over 100 µM, a TGI (SN12C renal) of over 100 µM and a TGI (RXF 393 renal) of over 100 µM. It also gave a TGI (OVCAR-3 ovarian) of over 100 µM, a TGI (MCF7 breast) of over 100 µM and a TGI (COLO 205 colon) of over 100 µM. For the same compound, the TGI (CAKI-1 renal) was over 100 µM, the TGI (SF-295 CNS) was over 100 µM and the TGI (IGROV1 ovarian) was over 100 µM. It also gave a TGI (SR leukemia) of over 100 µM, a TGI (NCI-H23 lung) of over 100 µM and a TGI (HT29 colon) of over 100 µM. The TGI (HCC-2998 colon) was over 100 µM and the TGI (HS 578T breast) was over 100 µM.
`O=C(CCN1CCOCC1)Nc1ccc2sc3ccccc3c(=O)c2n1` was tested, and the TGI (OVCAR-8 ovarian) was over 100 µM, the TGI (PC-3 prostate) was over 100 µM and the TGI (SN12C renal) was over 100 µM. For the same compound, the TGI (OVCAR-3 ovarian) was over 100 µM, the TGI (MCF7 breast) was over 100 µM and the TGI (MALME-3M melanoma) was 85.2 µM. It also gave a TGI (COLO 205 colon) of over 100 µM, a TGI (CAKI-1 renal) of 63.8 µM and a TGI (SF-295 CNS) of over 100 µM. For the same compound, the TGI (IGROV1 ovarian) was over 100 µM, the TGI (SR leukemia) was over 100 µM and the TGI (NCI-H23 lung) was over 100 µM. The TGI (HT29 colon) was over 100 µM, the TGI (HCC-2998 colon) was over 100 µM and the TGI (NCI-H522 lung) was 45.9 µM. For the same compound, the TGI (SK-MEL-5 melanoma) was 82.5 µM and the TGI (HS 578T breast) was over 100 µM.
For `COc1ccc(Cc2nccc3cc(OC)c(OC)cc23)cc1OC`, the TGI (OVCAR-8 ovarian) was over 100 µM, the TGI (PC-3 prostate) was over 100 µM and the TGI (SN12C renal) was over 100 µM. It also gave a TGI (OVCAR-3 ovarian) of over 100 µM, a TGI (MCF7 breast) of over 100 µM and a TGI (COLO 205 colon) of over 100 µM. It also gave a TGI (CAKI-1 renal) of over 100 µM, a TGI (SF-295 CNS) of over 100 µM and a TGI (IGROV1 ovarian) of over 100 µM. The TGI (SR leukemia) was over 100 µM, the TGI (NCI-H23 lung) was over 100 µM and the TGI (HT29 colon) was over 100 µM. It also gave a TGI (HCC-2998 colon) of over 100 µM, a TGI (NCI-H522 lung) of over 100 µM and a TGI (SK-MEL-5 melanoma) of 99.3 µM. For the same compound, the TGI (HS 578T breast) was over 100 µM.
Compound `Cc1ccc(S(=O)(=O)N2CCCC2C(=O)O[C@H]2CC[C@H]3CC=C[C@H]32)cc1` (stereo partly drawn) has a TGI (OVCAR-8 ovarian) of over 100 µM, a TGI (PC-3 prostate) of over 100 µM and a TGI (SN12C renal) of over 100 µM. The TGI (OVCAR-3 ovarian) was over 100 µM, the TGI (MCF7 breast) was 78.8 µM and the TGI (MALME-3M melanoma) was over 100 µM. For the same compound, the TGI (CAKI-1 renal) was over 100 µM, the TGI (SF-295 CNS) was over 100 µM and the TGI (IGROV1 ovarian) was over 100 µM. For the same compound, the TGI (SR leukemia) was over 69.6 µM, the TGI (NCI-H23 lung) was over 100 µM and the TGI (HT29 colon) was over 100 µM. It also gave a TGI (HCC-2998 colon) of over 100 µM, a TGI (SK-MEL-5 melanoma) of 43.6 µM and a TGI (HS 578T breast) of over 100 µM.
For `O=C1/C(=C/c2ccc(Cl)cc2)N=C(c2ccccc2)N1c1ccc(S(=O)(=O)Nc2nccs2)cc1`, the TGI (PC-3 prostate) was over 100 µM, the TGI (SN12C renal) was over 100 µM and the TGI (RXF 393 renal) was over 100 µM. The TGI (OVCAR-3 ovarian) was over 100 µM, the TGI (MCF7 breast) was 82.9 µM and the TGI (MALME-3M melanoma) was over 100 µM. For the same compound, the TGI (COLO 205 colon) was 40.7 µM, the TGI (CAKI-1 renal) was over 100 µM and the TGI (SF-295 CNS) was over 100 µM. The TGI (SR leukemia) was over 100 µM, the TGI (NCI-H23 lung) was over 100 µM and the TGI (HT29 colon) was 56.3 µM. It also gave a TGI (HCC-2998 colon) of 47.4 µM, a TGI (SK-MEL-5 melanoma) of 66.6 µM and a TGI (HS 578T breast) of over 100 µM.
`Clc1nc2n(c1/C=C/c1cccs1)CCS2` showed a TGI (OVCAR-8 ovarian) of over 100 µM, a TGI (PC-3 prostate) of over 100 µM and a TGI (SN12C renal) of over 100 µM. The TGI (RXF 393 renal) was over 100 µM, the TGI (OVCAR-3 ovarian) was 87.9 µM and the TGI (MCF7 breast) was over 100 µM. The TGI (MALME-3M melanoma) was over 100 µM, the TGI (COLO 205 colon) was over 100 µM and the TGI (CAKI-1 renal) was 55.2 µM. For the same compound, the TGI (SF-295 CNS) was over 100 µM, the TGI (IGROV1 ovarian) was over 100 µM and the TGI (NCI-H23 lung) was over 100 µM. It also gave a TGI (HT29 colon) of 96.6 µM, a TGI (HCC-2998 colon) of over 100 µM and a TGI (NCI-H522 lung) of over 100 µM. It also gave a TGI (SK-MEL-5 melanoma) of 32.9 µM and a TGI (HS 578T breast) of over 100 µM.
`NC(=O)NC(=O)c1cccc(NC(=O)CBr)c1` gave a TGI (PC-3 prostate) of 1.49 µM, a TGI (SN12C renal) of 0.391 µM and a TGI (RXF 393 renal) of 1.38 µM. It also gave a TGI (OVCAR-3 ovarian) of 0.024 µM, a TGI (MCF7 breast) of 1.61 µM and a TGI (MALME-3M melanoma) of 0.746 µM. The TGI (COLO 205 colon) was under 0.01 µM, the TGI (CAKI-1 renal) was 0.321 µM and the TGI (SF-295 CNS) was 2.7 µM. For the same compound, the TGI (IGROV1 ovarian) was 0.368 µM, the TGI (SR leukemia) was 0.152 µM and the TGI (NCI-H23 lung) was 1.54 µM. The TGI (HT29 colon) was under 0.0291 µM, the TGI (NCI-H522 lung) was under 0.01 µM and the TGI (SK-MEL-5 melanoma) was under 0.0184 µM. The TGI (HS 578T breast) was under 0.0505 µM.
With `NC(=O)c1[nH]cnc1/N=N/SCC(N)C(=O)O` (stereo not drawn) the TGI (OVCAR-8 ovarian) was over 100 µM, the TGI (PC-3 prostate) was over 100 µM and the TGI (SN12C renal) was over 58 µM. The TGI (RXF 393 renal) was over 100 µM, the TGI (OVCAR-3 ovarian) was over 100 µM and the TGI (MCF7 breast) was over 100 µM. For the same compound, the TGI (MALME-3M melanoma) was over 100 µM, the TGI (COLO 205 colon) was over 100 µM and the TGI (CAKI-1 renal) was over 100 µM. The TGI (SF-295 CNS) was over 75.1 µM, the TGI (IGROV1 ovarian) was over 100 µM and the TGI (NCI-H23 lung) was over 100 µM. The TGI (HT29 colon) was over 100 µM, the TGI (HCC-2998 colon) was over 30.6 µM and the TGI (NCI-H522 lung) was over 100 µM. It also gave a TGI (SK-MEL-5 melanoma) of over 100 µM and a TGI (HS 578T breast) of over 100 µM.
With `O=C(c1cccc(C(=O)c2ccc3c4c(cccc24)C(=O)N(c2ccccc2)C3=O)c1)c1ccc2c3c(cccc13)C(=O)N(c1ccccc1)C2=O` the TGI (OVCAR-8 ovarian) was over 100 µM, the TGI (PC-3 prostate) was over 100 µM and the TGI (SN12C renal) was over 100 µM. For the same compound, the TGI (RXF 393 renal) was over 100 µM, the TGI (OVCAR-3 ovarian) was over 100 µM and the TGI (MCF7 breast) was over 100 µM. For the same compound, the TGI (MALME-3M melanoma) was over 100 µM, the TGI (COLO 205 colon) was over 100 µM and the TGI (CAKI-1 renal) was over 100 µM. It also gave a TGI (SF-295 CNS) of over 100 µM, a TGI (IGROV1 ovarian) of over 100 µM and a TGI (NCI-H23 lung) of over 100 µM. The TGI (HT29 colon) was over 100 µM, the TGI (HCC-2998 colon) was over 100 µM and the TGI (NCI-H522 lung) was over 100 µM. For the same compound, the TGI (SK-MEL-5 melanoma) was over 100 µM and the TGI (HS 578T breast) was over 100 µM.
Work on `O=C1/C(=C/c2ccco2)N=C(c2ccccc2)N1c1cc2cc(Sc3ccccc3)ccc2[nH]1` yielded a TGI (OVCAR-8 ovarian) of over 25 µM, a TGI (PC-3 prostate) of over 25 µM and a TGI (SN12C renal) of over 25 µM. For the same compound, the TGI (RXF 393 renal) was over 25 µM, the TGI (MCF7 breast) was over 25 µM and the TGI (MALME-3M melanoma) was over 25 µM. The TGI (COLO 205 colon) was over 25 µM, the TGI (CAKI-1 renal) was over 25 µM and the TGI (IGROV1 ovarian) was over 25 µM. The TGI (SR leukemia) was over 25 µM, the TGI (NCI-H23 lung) was over 25 µM and the TGI (HT29 colon) was over 25 µM. It also gave a TGI (NCI-H522 lung) of over 25 µM and a TGI (HS 578T breast) of over 25 µM.
